Read-outs that look alike come from different tables or passages of the source.
Target: T1, TFEB (Homo sapiens, UniProt P19484)
T1 sequence (P19484 1-476): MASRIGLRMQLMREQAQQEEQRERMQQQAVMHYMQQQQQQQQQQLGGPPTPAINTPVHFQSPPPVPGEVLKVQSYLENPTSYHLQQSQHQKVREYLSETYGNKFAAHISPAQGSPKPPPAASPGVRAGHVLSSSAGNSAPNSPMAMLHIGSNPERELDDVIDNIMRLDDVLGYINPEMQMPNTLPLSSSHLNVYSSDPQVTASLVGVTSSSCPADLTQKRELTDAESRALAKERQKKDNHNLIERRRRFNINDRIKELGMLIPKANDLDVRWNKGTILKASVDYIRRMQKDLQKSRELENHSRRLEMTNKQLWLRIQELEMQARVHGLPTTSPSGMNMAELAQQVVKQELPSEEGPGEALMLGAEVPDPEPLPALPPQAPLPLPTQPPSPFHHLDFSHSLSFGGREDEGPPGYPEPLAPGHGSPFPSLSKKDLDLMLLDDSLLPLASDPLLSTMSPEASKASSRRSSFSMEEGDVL
Test: Tfeb-Translocation Assay HEK-293T-oEX-Tfeb-GFP Cell Line
Format: cell-based
Conditions: HEK-293T-oEX-TFEB-GFP cells
Procedure: Tfeb-Translocation Assay HEK-293T-oEX-Tfeb-GFP Cell Line
• 1). Added 2×10^6 cell into a T75 flask with 15 mL DiVEM medium (with 10% FBS, 1% PS, 1×GLUTAMAX, 1×MEM NEAA, 1×HEPES Buffer Solution and 5 ug/mL blasticidin). • 2). Culturing for 48-72 hours. Cells in logarithmic growth phase were taken for experiment. The other cells were passaged as described in step 1. • 3). Seeded 1×10^4 cells/30 μL/well into 384-well plate (BD 356663). Cultured overnight at 37° C. & 5% CO2 incubator. • 4). Note: Used cells <10 passage
• 1). Compounds were firstly diluted by DMSO to the stock needed (10 mM), and aliquoted and stored at −20° C. • 2). Took one aliquot each time and made 3-fold or 2-fold dilutions as indicated, total 10 doses plus one DMSO control well in the source plate. • 3). Added 150 or 90 nL/well compounds solution to the assay plate by ECHO and incubated for 6 or 18 hours respectively at 37° C. & 5% CO2 incubator.
• 1). Added 30 uL 8% PFA into the wells and incubated 20 min at room temperature. • 2). Discarded the medium, washed the wells twice with DPBS to eliminate foam and bubbles in the well.
• 1). Diluted Hoechest-333824 in DPBS to get 2 μg/mL solution and added 30 uL/well into assay plate, incubated at room temperature for 20 mins. • 2). Discarded the supernatant, washed the wells twice with DPBS to eliminate foam and bubbles in the well. Then added DPBS 20 uL/well.
3). Scanned Plate by Operetta.
• 1). Reference compound: Torin 1 • 2). Test compounds: C1, C2, C3, C4, C5, C6. • 3). Diluted compounds in 384 LDV-dilution plate according to the dilution plate map • 4). Compounds starting concentration: Torin 1: 300 nM and Test compounds: 50 uM.
• 1). Selected all nucleus by Operetta as ‘All Cells’ • 2). Calculated the EGFP average intensity inside the Nucleus region. • 3). Selected population that the EGFP mean intensity inside the Nucleus region>background as the EGFP-positive cells • 4). Selected the Surrounding region of the nucleus and calculated the EGFP mean intensity of the region • 5). Inside the EGFP-positive cell population, selected the cells with EGFP mean intensity inside the Nucleus region/the EGFP mean intensity inside the surrounding region=1.2 (This ratio could be slightly adjusted from time to time) as the Translocation positive cell. • 6). Outputted the ratio of Translocation positive cell/EGFP-positive cells as the Translocation Positive Ratio. • 7). Each time set the ratio of DMSO group (Control Group) as ˜15% and then normalized the compound group to the DMSO group.

[1] = translocation positive cells ratio, read-out: TFEB Translocation EC50

Row | SMILES | EC50 [1] | EC50 (reference compound, read-out: EC50 of reference compound (TFEB translocation))
1 | Cc1nc2ccn(Cc3ccccc3)c(=O)c2cc1C(=O)NCc1ncccc1F [Example 36, 6-benzyl-N-((3-fluoropyridin-2-yl)methyl)-2-methyl-5-oxo-5,6-dihydro-1,6-naphthyridine-3-carboxamide] | 1000 to 10000 nM | –
2 | Cc1nc2ccn(Cc3ccc(F)cn3)c(=O)c2cc1C(=O)NCc1ccccn1 [Example 44, 6-((5-fluoropyridin-2-yl)methyl)-2-methyl-5-oxo-N-(pyridin-2-ylmethyl)-5,6-dihydro-1,6-naphthyridine-3-carboxamide] | 1000 to 10000 nM | –
3 | Cc1nc2ccn(C(C)c3ccccc3)c(=O)c2cc1C(=O)NCc1ccccn1 (stereo not shown) [Example 37, 2-methyl-5-oxo-6-(1-phenylethyl)-N-(pyridin-2-ylmethyl)-5,6-dihydro-1,6-naphthyridine-3-carboxamide] | 100 to 1000 nM | –
4 | Cc1nc2ccn(Cc3ccccc3)c(=O)c2cc1C(=O)NCc1cc(F)ccn1 [Example 39, 6-benzyl-N-((4-fluoropyridin-2-yl)methyl)-2-methyl-5-oxo-5,6-dihydro-1,6-naphthyridine-3-carboxamide] | 100 to 1000 nM | –
5 | Cc1nc2ccn(Cc3cccnc3)c(=O)c2cc1C(=O)NCc1ccccn1 [Example 58, 2-methyl-5-oxo-N-(pyridin-2-ylmethyl)-6-(pyridin-3-ylmethyl)-5,6-dihydro-1,6-naphthyridine-3-carboxamide] | ≥ 10000 nM | –
6 | Cc1nc2ccn(Cc3ccccc3)c(=O)c2cc1C(=O)NCc1ncccn1 [Example 29, 6-benzyl-2-methyl-5-oxo-N-(pyrimidin-2-ylmethyl)-5,6-dihydro-1,6-naphthyridine-3-carboxamide] | ≥ 10000 nM | –
7 | Cc1nc2ccn(CC3CCCCC3)c(=O)c2cc1C(=O)NCc1ccccn1 [Example 40, 6-(cyclohexylmethyl)-2-methyl-5-oxo-N-(pyridin-2-ylmethyl)-5,6-dihydro-1,6-naphthyridine-3-carboxamide] | ≥ 10000 nM | –
8 | Cc1nc2ccn(Cc3ccccc3)c(=O)c2cc1C(=O)NCCc1ccco1 [Example 73, 6-benzyl-N-(2-(furan-2-yl)ethyl)-2-methyl-5-oxo-5,6-dihydro-1,6-naphthyridine-3-carboxamide] | 1000 to 10000 nM | –
9 | Cc1nc2ccn(Cc3ccccc3)c(=O)c2cc1C(=O)NCc1ccncc1 [Example 12, 6-benzyl-2-methyl-5-oxo-N-(pyridin-4-ylmethyl)-5,6-dihydro-1,6-naphthyridine-3-carboxamide] | 1000 to 10000 nM | –
10 | CCC(=O)N1CCN(c2ccc(-n3c(=O)ccc4cnc5ccc(-c6cnc7ccccc7c6)cc5c43)cc2C(F)(F)F)CC1 [Torin 1, reference compound] | – | 28.3 nM
11 | Cc1nc2ccn(Cc3ccccc3)c(=O)c2cc1C(=O)NCc1cccnn1 [Example 33, 6-benzyl-2-methyl-5-oxo-N-(pyridazin-3-ylmethyl)-5,6-dihydro-1,6-naphthyridine-3-carboxamide] | 1000 to 10000 nM | –
12 | Cc1nc2ccn(Cc3ccccc3)c(=O)c2cc1C(=O)NCc1ccc(C(N)=O)cc1 [Example 43, 6-benzyl-N-(4-carbamoylbenzyl)-2-methyl-5-oxo-5,6-dihydro-1,6-naphthyridine-3-carboxamide] | ≥ 10000 nM | –
13 | Cc1nc2ccn(C)c(=O)c2cc1C(=O)NCc1ccccn1 [Example 53, 2,6-dimethyl-5-oxo-N-(pyridin-2-ylmethyl)-5,6-dihydro-1,6-naphthyridine-3-carboxamide] | ≥ 10000 nM | –

The next lines start with the values.

Row | EC50 [1] | EC50 (reference compound, read-out: EC50 of reference compound (TFEB translocation)) | SMILES
14 | 1000 to 10000 nM | – | COCCn1ccc2nc(C)c(C(=O)NCc3ccc(Cl)cc3)cc2c1=O [Example 20, N-(4-chlorobenzyl)-6-(2-methoxyethyl)-2-methyl-5-oxo-5,6-dihydro-1,6-naphthyridine-3-carboxamide]
15 | < 100 nM | – | Cc1nc(CNC(=O)c2cc3c(=O)n(Cc4ccc(F)c(F)c4)ccc3nc2C)co1 [Example 76, 6-(3,4-difluorobenzyl)-2-methyl-N-((2-methyloxazol-4-yl)methyl)-5-oxo-5,6-dihydro-1,6-naphthyridine-3-carboxamide]
16 | 1000 to 10000 nM | – | Cc1nnc(CNC(=O)c2cc3c(=O)n(Cc4ccccc4)ccc3nc2C)o1 [Example 13, 6-benzyl-2-methyl-N-((5-methyl-1,3,4-oxadiazol-2-yl)methyl)-5-oxo-5,6-dihydro-1,6-naphthyridine-3-carboxamide]
17 | < 100 nM | – | Cc1nc(CNC(=O)c2cc3c(=O)n(Cc4ccc(Cl)cc4)ccc3nc2C)co1 [Example 80, 6-(4-chlorobenzyl)-2-methyl-N-((2-methyloxazol-4-yl)methyl)-5-oxo-5,6-dihydro-1,6-naphthyridine-3-carboxamide]
18 | < 100 nM | – | Cc1nc2ccn(Cc3ccc(F)c(F)c3)c(=O)c2cc1C(=O)NCc1ccccn1 [Example 61, 6-(3,4-difluorobenzyl)-2-methyl-5-oxo-N-(pyridin-2-ylmethyl)-5,6-dihydro-1,6-naphthyridine-3-carboxamide]
19 | < 100 nM | – | Cc1ccc(CNC(=O)c2cc3c(=O)n(Cc4cccs4)ccc3nc2C)o1 [Example 70, 2-methyl-N-((5-methylfuran-2-yl)methyl)-5-oxo-6-(thiophen-2-ylmethyl)-5,6-dihydro-1,6-naphthyridine-3-carboxamide]
20 | < 100 nM | – | Cc1nc2ccn(Cc3ccccc3)c(=O)c2cc1C(=O)NCc1cc(F)c(Cl)cn1 [Example 57, 6-benzyl-N-((5-chloro-4-fluoropyridin-2-yl)methyl)-2-methyl-5-oxo-5,6-dihydro-1,6-naphthyridine-3-carboxamide]
21 | 1000 to 10000 nM | – | Cc1nc(CNC(=O)c2cc3c(=O)n(Cc4ccccc4)ccc3nc2C)no1 [Example 19, 6-benzyl-2-methyl-N-((5-methyl-1,2,4-oxadiazol-3-yl)methyl)-5-oxo-5,6-dihydro-1,6-naphthyridine-3-carboxamide]
22 | < 100 nM | – | Cc1nc2ccn(Cc3ccccc3)c(=O)c2cc1C(=O)NCc1ccc(Cl)cc1 [Example 22, 6-benzyl-N-(4-chlorobenzyl)-2-methyl-5-oxo-5,6-dihydro-1,6-naphthyridine-3-carboxamide]
23 | < 100 nM | – | Cc1nc(CNC(=O)c2cc3c(=O)n(Cc4cccc(F)c4)ccc3nc2C)co1 [Example 79, 6-(3-fluorobenzyl)-2-methyl-N-((2-methyloxazol-4-yl)methyl)-5-oxo-5,6-dihydro-1,6-naphthyridine-3-carboxamide]
24 | 1000 to 10000 nM | – | Cc1nc2ccn(Cc3ccccc3)c(=O)c2cc1C(=O)NCc1cn(C)nn1 [Example 8, 6-benzyl-2-methyl-N-((1-methyl-11H-1,2,3-triazol-4-yl)methyl)-5-oxo-5,6-dihydro-1,6-naphthyridine-3-carboxamide]
25 | < 100 nM | – | Cc1nc2ccn(Cc3ccc(F)cc3)c(=O)c2cc1C(=O)NCc1ccccn1 [Example 47, 6-(4-fluorobenzyl)-2-methyl-5-oxo-N-(pyridin-2-ylmethyl)-5,6-dihydro-1,6-naphthyridine-3-carboxamide]
26 | 100 to 1000 nM | – | Cc1nc2ccn(Cc3ccccc3)c(=O)c2cc1C(=O)NCc1ccn(C)n1 [Example 14, 6-benzyl-2-methyl-N-((1-methyl-1H-pyrazol-3-yl)methyl)-5-oxo-5,6-dihydro-1,6-naphthyridine-3-carboxamide]
27 | < 100 nM | – | Cc1nc2ccn(Cc3ccc(F)c(F)c3)c(=O)c2cc1C(=O)NCc1ccc(F)cn1 [Example 63, 6-(3,4-difluorobenzyl)-N-((5-fluoropyridin-2-yl)methyl)-2-methyl-5-oxo-5,6-dihydro-1,6-naphthyridine-3-carboxamide]
28 | < 100 nM | – | Cc1nc2ccn(Cc3ccccc3)c(=O)c2cc1C(=O)NCc1ccc(F)cn1 [Example 35, 6-benzyl-N-((5-fluoropyridin-2-yl)methyl)-2-methyl-5-oxo-5,6-dihydro-1,6-naphthyridine-3-carboxamide]
